In publication PMC2263054, “Functional evolution of the vitamin D and pregnane X receptors” (BMC Evolutionary Biology, 2007):
Counter-ions that a name gives are not always drawn. Like-named read-outs stand apart in the source and are kept apart here.

Columns and labels:
Assay type in all cases: cell-based
Sea lamprey VDR = molecular target: T1, Sea lamprey VDR (Petromyzon marinus, UniProt Q7ZZY9)
T1 sequence (Q7ZZY9 92-406): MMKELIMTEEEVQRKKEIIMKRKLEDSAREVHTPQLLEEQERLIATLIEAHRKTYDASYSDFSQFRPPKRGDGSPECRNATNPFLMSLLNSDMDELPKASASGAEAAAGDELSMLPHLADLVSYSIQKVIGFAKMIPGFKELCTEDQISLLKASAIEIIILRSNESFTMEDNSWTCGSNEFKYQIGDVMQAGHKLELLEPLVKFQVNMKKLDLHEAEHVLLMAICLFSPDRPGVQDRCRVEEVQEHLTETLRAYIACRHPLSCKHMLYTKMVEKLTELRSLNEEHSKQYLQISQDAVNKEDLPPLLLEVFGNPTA

Zebrafish VDR = molecular target: T2, Zebrafish VDR (Danio rerio, UniProt Q9PTN2); assay: luciferase reporter transactivation assay in HepG2-NTCP cells, GAL4/zfVDR LBD chimera with tk-UAS-Luc; conditions: screening for activators, at least three concentrations of each drug
T2 sequence (Q9PTN2 121-453): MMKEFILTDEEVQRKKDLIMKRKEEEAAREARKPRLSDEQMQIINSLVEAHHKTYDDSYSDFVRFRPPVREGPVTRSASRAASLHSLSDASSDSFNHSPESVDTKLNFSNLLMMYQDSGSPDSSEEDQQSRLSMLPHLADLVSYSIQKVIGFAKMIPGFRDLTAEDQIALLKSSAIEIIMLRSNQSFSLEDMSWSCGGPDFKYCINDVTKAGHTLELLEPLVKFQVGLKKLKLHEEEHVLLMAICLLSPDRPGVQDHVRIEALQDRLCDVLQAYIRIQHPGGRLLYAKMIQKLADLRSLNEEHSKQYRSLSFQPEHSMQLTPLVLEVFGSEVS

Xenopus laevis VDR = molecular target: T3, Xenopus laevis VDR (Xenopus laevis, UniProt O13124); assay: luciferase reporter transactivation assay in HepG2-NTCP cells, GAL4/xlVDR LBD chimera with tk-UAS-Luc; conditions: screening for activators, at least three concentrations of each drug
T3 sequence (O13124 90-422): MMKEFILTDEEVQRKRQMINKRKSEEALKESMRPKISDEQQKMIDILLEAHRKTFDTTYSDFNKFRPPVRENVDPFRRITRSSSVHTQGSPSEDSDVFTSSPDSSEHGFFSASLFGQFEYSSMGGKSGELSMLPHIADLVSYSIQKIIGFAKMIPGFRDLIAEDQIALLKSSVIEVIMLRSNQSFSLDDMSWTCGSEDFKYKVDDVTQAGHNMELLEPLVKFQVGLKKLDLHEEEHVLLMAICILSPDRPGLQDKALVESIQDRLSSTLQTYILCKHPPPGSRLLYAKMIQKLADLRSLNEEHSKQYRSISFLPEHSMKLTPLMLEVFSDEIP

[1] = screening for activators, at least three concentrations of each drug

CC(=O)N[C@@H](CSC/C=C(\C)CCC=C(C)C)C(=O)O [Acetyl-geranyl-cysteine]
No effect: Effect on sea lamprey VDR (Sea lamprey VDR; [1]) | Effect on zebrafish VDR (Zebrafish VDR) | Effect on Xenopus laevis VDR (Xenopus laevis VDR)

CC(=O)N[C@@H](CSC/C=C(\C)CC/C=C(\C)CC/C=C(\C)CCC=C(C)C)C(=O)O [Acetyl-geranylgeranyl-cysteine]
No effect: Effect on sea lamprey VDR (Sea lamprey VDR; [1]) | Effect on zebrafish VDR (Zebrafish VDR) | Effect on Xenopus laevis VDR (Xenopus laevis VDR)

COc1cc(C)c(/C=C/C(C)=C/C=C/C(C)=C/C(=O)O)c(C)c1C [Aciretin]
No effect: Effect on sea lamprey VDR (Sea lamprey VDR; [1]) | Effect on zebrafish VDR (Zebrafish VDR) | Effect on Xenopus laevis VDR (Xenopus laevis VDR)

C[C@]12CCC(=O)C=C1CC[C@@H]1[C@@H]2[C@@H](O)C[C@]2(C=O)[C@@H](C(=O)CO)CC[C@@H]12 [Aldosterone]
No effect: Effect on sea lamprey VDR (Sea lamprey VDR; [1]) | Effect on zebrafish VDR (Zebrafish VDR) | Effect on Xenopus laevis VDR (Xenopus laevis VDR)

CC1=C(/C=C/C(C)=C/C=C/C(C)=C/C(=O)O)C(C)(C)CCC1 [All trans retinoic acid]
No effect: Effect on sea lamprey VDR (Sea lamprey VDR; [1]) | Effect on zebrafish VDR (Zebrafish VDR) | Effect on Xenopus laevis VDR (Xenopus laevis VDR)

C[C@H](CCC(=O)O)[C@H]1CC[C@H]2[C@@H]3[C@H](O)C[C@H]4C[C@H](O)CC[C@]4(C)[C@H]3C[C@H](O)[C@]12C [Allocholic acid]
No effect: Effect on sea lamprey VDR (Sea lamprey VDR; [1]) | Effect on zebrafish VDR (Zebrafish VDR) | Effect on Xenopus laevis VDR (Xenopus laevis VDR)

Cc1c(C)c2c(c(C)c1O)CC[C@@](C)(CCC[C@H](C)CCC[C@H](C)CCCC(C)C)O2 [Alpha-tocopherol]
No effect: Effect on sea lamprey VDR (Sea lamprey VDR; [1]) | Effect on zebrafish VDR (Zebrafish VDR) | Effect on Xenopus laevis VDR (Xenopus laevis VDR)

C[C@]12CC[C@@H](O)C[C@@H]1CC[C@@H]1[C@@H]2CC[C@]2(C)C(=O)CC[C@@H]12 [Androsterone]
No effect: Effect on sea lamprey VDR (Sea lamprey VDR; [1]) | Effect on zebrafish VDR (Zebrafish VDR) | Effect on Xenopus laevis VDR (Xenopus laevis VDR)

CC(C)(c1ccc(OCC2CO2)cc1)c1ccc(OCC2CO2)cc1 (stereo not drawn) [BADGE]
No effect: Effect on sea lamprey VDR (Sea lamprey VDR; [1]) | Effect on zebrafish VDR (Zebrafish VDR) | Effect on Xenopus laevis VDR (Xenopus laevis VDR)

CC1=C(/C=C/C(C)=C/C=C/C(C)=C/C=C/C=C(C)/C=C/C=C(C)/C=C/C2=C(C)CCCC2(C)C)C(C)(C)CCC1 [Beta-carotene]
No effect: Effect on sea lamprey VDR (Sea lamprey VDR; [1]) | Effect on zebrafish VDR (Zebrafish VDR) | Effect on Xenopus laevis VDR (Xenopus laevis VDR)

CC[C@H](CC[C@@H](C)[C@H]1CC[C@H]2[C@@H]3CC=C4C[C@@H](O)CC[C@]4(C)[C@H]3CC[C@]12C)C(C)C [Beta-sitosterol]
No effect: Effect on sea lamprey VDR (Sea lamprey VDR; [1]) | Effect on zebrafish VDR (Zebrafish VDR) | Effect on Xenopus laevis VDR (Xenopus laevis VDR)

Cc1cc(O)c(C)c2c1O[C@](C)(CCC[C@H](C)CCC[C@H](C)CCCC(C)C)CC2 [Beta-tocopherol]
No effect: Effect on sea lamprey VDR (Sea lamprey VDR; [1]) | Effect on zebrafish VDR (Zebrafish VDR) | Effect on Xenopus laevis VDR (Xenopus laevis VDR)

CC(C)(Oc1ccc(CCNC(=O)c2ccc(Cl)cc2)cc1)C(=O)O [Bezafibrate]
No effect: Effect on sea lamprey VDR (Sea lamprey VDR; [1]) | Effect on zebrafish VDR (Zebrafish VDR) | Effect on Xenopus laevis VDR (Xenopus laevis VDR)

Clc1ccc(-c2nc3sccn3c2/C=N/OCc2ccc(Cl)c(Cl)c2)cc1 [CITCO]
No effect: Effect on sea lamprey VDR (Sea lamprey VDR; [1]) | Effect on zebrafish VDR (Zebrafish VDR) | Effect on Xenopus laevis VDR (Xenopus laevis VDR)

CC(C)[C@H](C)CC[C@@H](C)[C@H]1CC[C@H]2[C@@H]3CC=C4C[C@@H](O)CC[C@]4(C)[C@H]3CC[C@]12C [Campesterol]
No effect: Effect on sea lamprey VDR (Sea lamprey VDR; [1]) | Effect on zebrafish VDR (Zebrafish VDR) | Effect on Xenopus laevis VDR (Xenopus laevis VDR)

C[C@H](CCC(=O)O)[C@H]1CC[C@H]2[C@@H]3[C@H](O)C[C@@H]4C[C@H](O)CC[C@]4(C)[C@H]3CC[C@]12C [Chenodeoxycholic acid]
No effect: Effect on sea lamprey VDR (Sea lamprey VDR) | Effect on zebrafish VDR (Zebrafish VDR) | Effect on Xenopus laevis VDR (Xenopus laevis VDR)

CC(C)CCC[C@@H](C)[C@H]1CC[C@H]2[C@@H]3CC=C4C[C@@H](OS(=O)(=O)O)CC[C@]4(C)[C@H]3CC[C@]12C [Cholesteryl sulfate (5-cholesten-3b-ol), Cholesteryl sulfate]
No effect: Effect on sea lamprey VDR (Sea lamprey VDR; [1]) | Effect on zebrafish VDR (Zebrafish VDR) | Effect on Xenopus laevis VDR (Xenopus laevis VDR)

CC1(COc2ccc(CC3SC(=O)NC3=O)cc2)CCCCC1 (stereo not drawn) [Ciglitazone]
No effect: Effect on sea lamprey VDR (Sea lamprey VDR; [1]) | Effect on zebrafish VDR (Zebrafish VDR) | Effect on Xenopus laevis VDR (Xenopus laevis VDR)

CC(C)(Oc1ccc(Cl)cc1)C(=O)O [Clofibric acid]
No effect: Effect on sea lamprey VDR (Sea lamprey VDR; [1]) | Effect on zebrafish VDR (Zebrafish VDR) | Effect on Xenopus laevis VDR (Xenopus laevis VDR)

Clc1ccccc1C(c1ccccc1)(c1ccccc1)n1ccnc1 [Clotrimazole]
No effect: Effect on sea lamprey VDR (Sea lamprey VDR; [1]) | Effect on zebrafish VDR (Zebrafish VDR) | Effect on Xenopus laevis VDR (Xenopus laevis VDR)

C[C@]12CC[C@H]3[C@@H](CCC4=CC(=O)CC[C@@]43C)[C@@H]1CC[C@@H]2C(=O)CO [Cortexone (4-Pregnen-21-ol-3,20-dione), 4-Pregnen-21-ol-3,20-dione]
No effect: Effect on sea lamprey VDR (Sea lamprey VDR; [1]) | Effect on zebrafish VDR (Zebrafish VDR) | Effect on Xenopus laevis VDR (Xenopus laevis VDR)

C[C@]12CCC(=O)C=C1CC[C@@H]1[C@@H]2[C@@H](O)C[C@@]2(C)[C@H]1CC[C@]2(O)C(=O)CO [Cortisol]
No effect: Effect on sea lamprey VDR (Sea lamprey VDR; [1]) | Effect on zebrafish VDR (Zebrafish VDR) | Effect on Xenopus laevis VDR (Xenopus laevis VDR)

C[C@]12CCC(=O)C=C1CC[C@@H]1[C@@H]2C(=O)C[C@@]2(C)[C@H]1CC[C@]2(O)C(=O)CO [Cortisone]
No effect: Effect on sea lamprey VDR (Sea lamprey VDR) | Effect on zebrafish VDR (Zebrafish VDR) | Effect on Xenopus laevis VDR (Xenopus laevis VDR)

C[C@]12CC[C@@H](O)C[C@H]1CC[C@@H]1[C@@H]2[C@@H](O)C[C@@]2(C)[C@H]1CC[C@]2(O)[C@@H](O)CO [Cortol]
No effect: Effect on sea lamprey VDR (Sea lamprey VDR; [1]) | Effect on zebrafish VDR (Zebrafish VDR) | Effect on Xenopus laevis VDR (Xenopus laevis VDR)

C[C@]12CC[C@@H](O)C[C@H]1CC[C@@H]1[C@@H]2C(=O)C[C@@]2(C)[C@H]1CC[C@]2(O)[C@@H](O)CO [Cortolone]
No effect: Effect on sea lamprey VDR (Sea lamprey VDR; [1]) | Effect on zebrafish VDR (Zebrafish VDR) | Effect on Xenopus laevis VDR (Xenopus laevis VDR)

CC(C)=CCC[C@@H](C)[C@H]1CC[C@@]2(C)[C@@H]3CC[C@H]4C(C)(C)[C@@H](O)CC[C@@]45C[C@@]35CC[C@]12C [Cycloartenol]
No effect: Effect on sea lamprey VDR (Sea lamprey VDR; [1]) | Effect on zebrafish VDR (Zebrafish VDR) | Effect on Xenopus laevis VDR (Xenopus laevis VDR)

C[C@]12CC[C@H](OS(=O)(=O)O)CC1=CC[C@@H]1[C@@H]2CC[C@]2(C)C(=O)CC[C@@H]12 [DHEA sulfate]
No effect: Effect on sea lamprey VDR (Sea lamprey VDR; [1]) | Effect on zebrafish VDR (Zebrafish VDR) | Effect on Xenopus laevis VDR (Xenopus laevis VDR)

C[C@]12CC[C@H](O)CC1=CC[C@@H]1[C@@H]2CC[C@]2(C)C(=O)CC[C@@H]12 [DHEA]
No effect: Effect on sea lamprey VDR (Sea lamprey VDR; [1]) | Effect on zebrafish VDR (Zebrafish VDR) | Effect on Xenopus laevis VDR (Xenopus laevis VDR)

C[C@H](CCC(=O)O)[C@H]1CC[C@H]2[C@@H]3CC[C@@H]4C[C@H](O)CC[C@]4(C)[C@H]3C[C@H](O)[C@]12C [Deoxycholic acid]
No effect: Effect on sea lamprey VDR (Sea lamprey VDR; [1]) | Effect on zebrafish VDR (Zebrafish VDR) | Effect on Xenopus laevis VDR (Xenopus laevis VDR)

C[C@]12CCC(=O)C[C@@H]1CC[C@@H]1[C@@H]2CC[C@]2(C)[C@@H](O)CC[C@@H]12 [Dihydrotestosterone]
No effect: Effect on sea lamprey VDR (Sea lamprey VDR; [1]) | Effect on zebrafish VDR (Zebrafish VDR) | Effect on Xenopus laevis VDR (Xenopus laevis VDR)

CC/C=C\C/C=C\C/C=C\C/C=C\C/C=C\C/C=C\CCC(=O)O [Docosa-4Z,7Z,10Z,13Z,16Z,19Z-hexanoic acid]
No effect: Effect on sea lamprey VDR (Sea lamprey VDR; [1]) | Effect on zebrafish VDR (Zebrafish VDR) | Effect on Xenopus laevis VDR (Xenopus laevis VDR)

C[C@H]([C@H](O)CCC(C)(C)O)[C@H]1CC[C@@]2(O)C3=CC(=O)[C@@H]4C[C@@H](O)[C@@H](O)C[C@]4(C)[C@H]3CC[C@]12C [Ecdysone]
No effect: Effect on sea lamprey VDR (Sea lamprey VDR; [1]) | Effect on zebrafish VDR (Zebrafish VDR) | Effect on Xenopus laevis VDR (Xenopus laevis VDR)

C[C@]12CC[C@@H]3c4ccc(O)cc4CC[C@H]3[C@@H]1[C@@H](O)[C@@H](O)[C@@H]2O [Estetrol]
No effect: Effect on sea lamprey VDR (Sea lamprey VDR; [1]) | Effect on zebrafish VDR (Zebrafish VDR) | Effect on Xenopus laevis VDR (Xenopus laevis VDR)
